Laboratory results published in US11180510B2, “Xanthine derivatives and uses thereof as inhibitors of bromodomains of BET proteins” (Centre national de la recherche scientifique, priority 2017, dated 2021).
Entries after “also recorded” stand apart in the source; their conditions may differ.

How the values were obtained:
[1] = test system: c-Myc; experiment: c-Myc HTRF, CEM cell line; assay type: cell-based
Experimental: For additional evaluation of the effect of 43c in cell assays, an influence of the molecule on c-Myc expression was determined by c-Myc HTRF. c-Myc is a proto-oncogene that is often overexpressed in cancer. This leads to the increased expression of many genes, involved in cell proliferation, contributing to cancer development. Downregulation of c-Myc is considered as a promising approach for anticancer treatment.

[2] = molecular target: T1, Brdt(BD1) (Homo sapiens, UniProt Q58F21); experiment: HTRF BET selectivity profile, Brdt(BD1); assay type: binding
T1 construct: GST tagged bromodomain proteins were purchased from BPS Bioscience; purchased BPS Bioscience
Procedure, shortened: (§1)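 HTRF peptide-displacement assay with GST-tagged bromodomains and histone peptide, 0.5% final DMSO, incubated 3 h, 6 h or overnight at room temperature or 4 °C depending on bromodomain. 665/620 nm ratio read; inhibition scaled between DMSO and no-peptide controls, IC50 in triplicate.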

[3] = test system: Molm14 cells; experiment: Cell Titer-Glo cell viability assay, Molm14; assay type: cell-based; settings: Homo sapiens, MOLM-14, 72 h, mean of three experiments, NA = IC50 > maximal concentration used
Experimental: The human leukemia cell line Jurkat (ATCC® TIB-152) and Molm14 was maintained in RPMI-1640 medium or MEMα, respectively and supplemented both with 10% FBS at 37° C. and 5% CO2.
In antiproliferative assays, compounds were assayed for their growth inhibiting activity towards the described cancer cell lines using the Cell Titer-Glo Luminescent Cell Viability Assay as described by the manufacturer (Promega Corporation). Briefly, 10.000 cells were plated onto 96 well-plates (white with clear bottom (3610, Corning Costar)) in 90 μL media per well immediately before assay. 10 μL of compounds were added at different concentrations (ranging from 50 μM to 6 nM) to each well and cell cultures were incubated 37° C. during 72 h. Vehicle (DMSO) was used as negative control, JQ1 (a pan-BET inhibitor) was used as positive control and all compounds were tested in constant percentage of DMSO (1%). After addition of 50 μL Cell Titer-GLO, shaking 2 minutes and incubating at room temperature 10 minutes, the Luminescence was measured using a Centro luminometer LB960 (Berthold). Dose-response curves were generated and effective dose 50 values (EC50) were calculated using non-linear regression analysis (Graph Pad Prism).

[4] = molecular target: T2, Brd4(BD2) (Homo sapiens, UniProt O60885); experiment: HTRF BET selectivity profile, Brd4(BD2); assay type: binding
T2 construct: GST tagged bromodomain proteins were purchased from BPS Bioscience; purchased BPS Bioscience
Procedure, shortened: as §1

[5] = molecular target: BRD4(BD1) (Homo sapiens, UniProt O60885); experiment: Isothermal Titration Calorimetry; assay type: binding; settings: Brd4 (BD1), FIG. 1; read-out: KD by ITC (orthogonal assay)
Procedure, shortened: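 […]; general protocol uses 13 injections at 25° C, with protein titrant at 10–15× the compound concentration. Integrated heats fitted to a one-site model for ΔH and KA, with ΔG and TΔS derived from these.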

[6] = test system: 61 bromodomains; experiment: Thermal shift assay selectivity profile on 61 bromodomains; assay type: binding; settings: compound at 25 μM, 25 µM
Experimental: (§2) FIG. 3. Thermal Shift Assay (TSA) of 43c. The evaluation was performed on 61 bromodomains. A cut-off at +/−3.5° C. was set.
(§3) TSA “Bromoscan” assays (Reaction Biology) were performed in 384 well RT-PCR plate (BioRad) with a total working volume of 15 μL. The “BromoMelT™, containing the 61 GST- or His-tagged-bromodomains, SYPRO® Orange and a mix compounds as control, was purchased from Reaction Biology. For each point, 3 μL of protein (1×) and 12 μL master mix (buffer+SYPRO® Orange+compound at 25 μM or control mix compounds or DMSO (0.5%)) were mixed in plate. The plate was placed in a CFX384 RTQPC (BioRad), and heated 10 seconds at 25° C., then the temperature was increased from 25° C. to 90° C., by increment of 0.5° C. every 30 seconds. The fluorescence was recorded using FRET filters.

[7] = molecular target: Brd3(BD1) (Homo sapiens, UniProt Q15059); experiment: Thermal shift assay (BromoMELT), Brd3 (BD1); assay type: binding; set-up: containing the 61 GST- or His-tagged-bromodomains; purchased Reaction Biology; settings: compound at 25 μM, cut-off +/−3.5° C.
Experimental: as §2, §3

Brd3(BD1), sequence (Q15059 34-140 limits assumed): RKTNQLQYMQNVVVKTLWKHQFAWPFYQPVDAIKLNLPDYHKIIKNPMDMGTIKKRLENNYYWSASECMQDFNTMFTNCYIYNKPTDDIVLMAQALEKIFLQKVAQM

For CCn1cnc2c1c(=O)[nH]c(=O)n2Cc1ccc(CNS(=O)(=O)c2ccc(OC3CCOCC3)c(F)c2)cc1 [Compound 43c], the “concentration at which c-Myc is downregulated, CEM” value [1] was 2.6 µM, the IC50 [2] was 352 nM and the IC50 [3] was 6100 nM. The IC50 [4] was 2310 nM, the Kd [5] was 90 nM and the “Bromodomain selectivity profile by thermal shift assay” value [6] was “stabilize only BET proteins; also recorded: stabilizes only BRD4 (BD1) and BRD3 (BD1)”. For the same compound, the ΔTm at 25 µM [7] was 4.5 °C.
